Experiment: xn = mol fraction of the nth substance listed

C=CC#N + CCCO
viscosity [mPa·s], 101.33 kPa
Conditions	x1 = 0.1031	x1 = 0.203	x1 = 0.307	x1 = 0.4079	x1 = 0.5104	x1 = 0.6066	x1 = 0.7057	x1 = 0.8002	x1 = 0.9032
298.15 K	1.409	1.074	0.85	0.688	0.578	0.497	0.435	0.393	0.36
303.15 K	1.264	0.975	0.778	0.635	0.538	0.465	0.412	0.373	0.343
308.15 K	1.139	0.888	0.71	0.59	0.503	0.438	0.389	0.355	0.328

C=CC#N + CCCCCO
viscosity [mPa·s], 101.33 kPa
Conditions	x1 = 0.1032	x1 = 0.2077	x1 = 0.3006	x1 = 0.4053	x1 = 0.5035	x1 = 0.6091	x1 = 0.7025	x1 = 0.8042	x1 = 0.9004
298.15 K	2.405	1.777	1.384	1.064	0.847	0.668	0.558	0.464	0.401
303.15 K	2.107	1.58	1.24	0.965	0.774	0.619	0.52	0.436	0.382
308.15 K	1.86	1.413	1.122	0.879	0.715	0.577	0.488	0.416	0.364

CN(C)c1ccccc1 + CCC(=O)O
viscosity [mPa·s], 101 kPa
Conditions	x2 = 0.1014	x2 = 0.2025	x2 = 0.305	x2 = 0.3966	x2 = 0.5057	x2 = 0.6027	x2 = 0.6922	x2 = 0.8012	x2 = 0.8905	x2 = 0.8987
298.15 K	1.364	1.416	1.478	1.527	1.583	1.651	1.69	1.657	1.467	–
303.15 K	–	–	–	–	–	–	–	–	–	1.225

CC(=O)CC(C)=O + CS(C)=O
303.15 K, 101 kPa
Conditions	viscosity [mPa·s]
x2 = 0.1118	0.819
x2 = 0.2207	0.9187
x2 = 0.3269	1.032
x2 = 0.4303	1.117
x2 = 0.5312	1.209
x2 = 0.6296	1.302
x2 = 0.7256	1.427

Cn1ccnc1 + O
viscosity [mPa·s], 100 kPa
Conditions	298.15 K	308.15 K	318.15 K
x1 = 0.0499	1.322	1.024	0.821
x1 = 0.0997	1.733	1.313	1.031
x1 = 0.1496	2.155	1.611	1.239
x1 = 0.1996	2.583	1.893	1.451
x1 = 0.2991	3.413	2.423	1.806
x1 = 0.3993	3.978	2.789	2.034
x1 = 0.499	4.032	2.846	2.094
x1 = 0.5989	3.653	2.644	1.983
x1 = 0.6996	3.103	2.278	1.772
x1 = 0.7996	2.561	1.974	1.579
x1 = 0.8493	2.337	1.829	1.491
x1 = 0.8988	2.136	1.673	1.388
x1 = 0.9496	1.96	1.557	1.309

CC(C)(C)Br + CCC(C)O
viscosity [mPa·s], 101.3 kPa
Conditions	x1 = 0.1001	x1 = 0.2023	x1 = 0.3034	x1 = 0.4041	x1 = 0.5076	x1 = 0.605	x1 = 0.7049	x1 = 0.8014	x1 = 0.8997
298.15 K	2.174	1.629	1.302	1.105	0.9569	0.876	0.8006	0.768	0.7327
313.15 K	1.386	1.108	0.9333	0.8074	0.7201	0.6655	0.6235	0.6023	0.5859

CCC(C)(C)O + O
298.15 K, 101 kPa
Conditions	viscosity [mPa·s]
x2 = 0.0042	3.548
x2 = 0.0429	3.711
x2 = 0.0863	3.875
x2 = 0.124	3.987
x2 = 0.1654	4.122
x2 = 0.197	4.218
x2 = 0.214	4.269
x2 = 0.2583	4.388
x2 = 0.2775	4.443

C=CC#N + COC(C)=O
viscosity [mPa·s]
Conditions	298.15 K	303.15 K	308.15 K
101.3 kPa, x1 = 0.1018	–	0.3427	–
101.3 kPa, x1 = 0.1999	–	0.3428	–
101.3 kPa, x1 = 0.3006	–	0.3407	–
101.3 kPa, x1 = 0.4001	–	0.338	–
101.3 kPa, x1 = 0.4946	–	0.3357	–
101.3 kPa, x1 = 0.6012	–	0.3319	–
101.3 kPa, x1 = 0.6955	–	0.3283	–
101.3 kPa, x1 = 0.8014	–	0.3242	–
101.3 kPa, x1 = 0.896	–	0.3198	–
101.33 kPa, x1 = 0.0617	0.389	0.371	0.354
101.33 kPa, x1 = 0.1961	0.385	0.367	0.351
101.33 kPa, x1 = 0.3042	0.38	0.362	0.349
101.33 kPa, x1 = 0.4041	0.375	0.357	0.345
101.33 kPa, x1 = 0.5024	0.37	0.353	0.34
101.33 kPa, x1 = 0.6004	0.365	0.348	0.335
101.33 kPa, x1 = 0.7033	0.36	0.343	0.33
101.33 kPa, x1 = 0.8037	0.355	0.336	0.322
101.33 kPa, x1 = 0.8416	0.353	0.333	0.319
